Where “and” joins values, the source holds several entries; their conditions need not be identical. Identical values can stand only once.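 Cells were grown in 96-well plates and exposed to each compound for 48 hours at five concentrations; endpoints were interpolated linearly between bracketing concentrations, or set to the highest concentration if not reached. Here, GI50 denotes the concentration required for 50% inhibition of growth. TGI: total growth inhibition.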

Test systems include TK-10 renal; EKVX NSCLC; HS 578T breast; HT29 colon; OVCAR-3 ovarian; UACC-62 melanoma; SW-620 colon; HCT-15 colon; M14 melanoma; SK-OV-3 ovarian.
Holding throughout (test): NCI anticancer screen, dose series, 48 h

As for `Nc1ccc(-c2ccc(Nc3cc(S(=O)(=O)O)c(N)c4c3C(=O)c3ccccc3C4=O)cc2)c(S(=O)(=O)O)c1`, the TGI with TK-10 renal, with EKVX NSCLC, with HS 578T breast, in the assay on HT29 colon, with OVCAR-3 ovarian and in the assay on UACC-62 melanoma was over 100 µM throughout. The TGI with SW-620 colon, in the assay with HCT-15 colon, with M14 melanoma and in the assay on SK-OV-3 ovarian was over 100 µM each time.

On to `C=CCC(N[C@@H](CO)c1ccccc1)c1ccccn1` (stereo partly drawn), for which the GI50 with TK-10 renal is over 100 µM; in the assay with EKVX NSCLC, 75 µM; in the assay on HS 578T breast, over 100 µM; with HT29 colon, over 100 µM; in the assay with OVCAR-3 ovarian, over 100 µM; with UACC-62 melanoma, over 100 µM. Also, the GI50 with SW-620 colon, with HCT-15 colon, in the assay on M14 melanoma and in the assay on SK-OV-3 ovarian was over 100 µM throughout. In addition, the TGI with TK-10 renal, in the assay with EKVX NSCLC, with HS 578T breast, in the assay on HT29 colon, in the assay with OVCAR-3 ovarian and in the assay with UACC-62 melanoma was over 100 µM in each case. Besides, the TGI in the assay on SW-620 colon, in the assay on HCT-15 colon, in the assay with M14 melanoma and in the assay with SK-OV-3 ovarian was over 100 µM in each case.

Consider `COc1ccc2c(O)c(/C=C3\N=Nc4ncccc43)oc2c1C[C@H]1CCNC[C@H]1F`, for which the GI50 is 0.479 µM in the assay on TK-10 renal; 0.484 µM in the assay with EKVX NSCLC; 0.16 µM in the assay on HS 578T breast; 0.411 µM in the assay with HT29 colon; 0.431 µM in the assay with OVCAR-3 ovarian; 0.476 µM in the assay on UACC-62 melanoma. Further, the GI50 in the assay with SW-620 colon was 0.291 µM; in the assay with HCT-15 colon, 0.507 µM; in the assay with M14 melanoma it was 0.589 µM; in the assay on SK-OV-3 ovarian, 1.57 µM. Besides, the TGI in the assay with TK-10 renal was found to be 9.13 µM; in the assay with EKVX NSCLC it was 9.62 µM; with HS 578T breast it was 5.34 µM; with HT29 colon it was 6.93 µM; in the assay on OVCAR-3 ovarian, 11.4 µM; in the assay with UACC-62 melanoma, 2.38 µM. The TGI was found to be 2.22 µM in the assay with SW-620 colon, 12.2 µM with HCT-15 colon, 3.64 µM in the assay on M14 melanoma and 9.05 µM with SK-OV-3 ovarian.

With `CCC(C(=O)c1cccs1)C(O)(C(F)(F)F)C(F)(F)F` (stereo not drawn), the TGI in the assay on TK-10 renal, with EKVX NSCLC, in the assay with HS 578T breast, in the assay on HT29 colon, in the assay on OVCAR-3 ovarian and in the assay on UACC-62 melanoma was over 100 µM throughout. Besides, the TGI in the assay on SW-620 colon, in the assay on HCT-15 colon, with M14 melanoma and with SK-OV-3 ovarian was over 100 µM throughout.

As for `Cc1cc(O)c(C2=NN(c3ccc(S(N)(=O)=O)cc3)C(c3ccccc3O)C2)cc1Cl` (stereo not drawn), the GI50 is 3.03 µM in the assay on TK-10 renal; 1.96 µM in the assay on EKVX NSCLC; 2.95 µM with HS 578T breast; 2.07 µM with HT29 colon; 2.61 µM with OVCAR-3 ovarian; 2.18 µM with UACC-62 melanoma. Moreover, the GI50 with SW-620 colon is 1.7 µM; with HCT-15 colon it was 2.39 µM; in the assay on M14 melanoma, 1.75 µM; in the assay with SK-OV-3 ovarian, 3.86 µM. Moreover, the TGI in the assay on TK-10 renal stood at 7.32 µM; in the assay with EKVX NSCLC, 6.52 µM; with HS 578T breast, 10.5 µM; with HT29 colon, 4.07 µM; in the assay on OVCAR-3 ovarian it was 7.62 µM; in the assay on UACC-62 melanoma it was 6.59 µM. The TGI with SW-620 colon was 3.39 µM; in the assay on HCT-15 colon, 6.25 µM; in the assay on M14 melanoma, 3.39 µM; in the assay on SK-OV-3 ovarian, 13.2 µM.

Take `C=CC(=O)NCCOc1cccc(Nc2cc(NCCCNC(=O)C3CCC3)c(Br)cn2)c1`: the GI50 in the assay with TK-10 renal was 1.6 µM; in the assay on EKVX NSCLC, 2.31 µM; in the assay on HS 578T breast, 0.567 µM; in the assay on HT29 colon, 0.548 µM; with OVCAR-3 ovarian, 0.836 µM; with UACC-62 melanoma it was 2.58 µM. Also, the GI50 is 0.904 µM in the assay on SW-620 colon, 1.38 µM in the assay on HCT-15 colon, 1.79 µM in the assay with M14 melanoma and 1 µM in the assay on SK-OV-3 ovarian. In addition, the TGI with TK-10 renal turned out to be 7.77 µM; in the assay with EKVX NSCLC, 22.5 µM; in the assay with HS 578T breast, 1.7 µM; in the assay with HT29 colon, 2.84 µM; in the assay on OVCAR-3 ovarian it was 3.75 µM; with UACC-62 melanoma, 6.87 µM. In addition, the TGI with SW-620 colon was determined as 6.53 µM; in the assay with HCT-15 colon, 23.3 µM; in the assay with M14 melanoma it was 7.86 µM; in the assay on SK-OV-3 ovarian, 4.06 µM.

As for `COc1ccc2c(c1)CC[C@@H]1[C@@H]2CC[C@]2(C)c3[nH]ncc3C[C@@H]12`, the GI50 in the assay on TK-10 renal was 27 µM; with EKVX NSCLC, 16.3 µM; in the assay with HS 578T breast it was 17.5 µM; in the assay with HT29 colon it was 15 µM; with OVCAR-3 ovarian it was 8.9 µM; with UACC-62 melanoma, 17.2 µM. Also, the GI50 was 16.1 µM with SW-620 colon, 16.8 µM with HCT-15 colon, 16.4 µM in the assay with M14 melanoma and 35.7 µM with SK-OV-3 ovarian. The TGI with TK-10 renal was over 50 µM; with EKVX NSCLC it was over 50 µM; in the assay on HS 578T breast, over 50 µM; in the assay on HT29 colon, over 50 µM; in the assay with OVCAR-3 ovarian, 18.6 µM; in the assay on UACC-62 melanoma it was over 50 µM. The TGI in the assay with SW-620 colon, in the assay on HCT-15 colon, in the assay with M14 melanoma and with SK-OV-3 ovarian was over 50 µM throughout.

As for `COc1ccc(N2CCN(CN3CCN(c4ccc(OC)cc4)C3)C2)cc1`, the GI50 with TK-10 renal, in the assay on EKVX NSCLC, in the assay on HS 578T breast, in the assay on HT29 colon, with OVCAR-3 ovarian and with UACC-62 melanoma was over 100 µM each time. The GI50 in the assay on SW-620 colon is 28.2 µM; in the assay on HCT-15 colon it was 37 µM; in the assay with M14 melanoma, over 100 µM; with SK-OV-3 ovarian, over 100 µM. The TGI with TK-10 renal, in the assay on EKVX NSCLC, in the assay on HS 578T breast, with HT29 colon, with OVCAR-3 ovarian and with UACC-62 melanoma was over 100 µM each time. In addition, the TGI in the assay with SW-620 colon, in the assay on HCT-15 colon, in the assay with M14 melanoma and with SK-OV-3 ovarian was over 100 µM in each case.

As for `CNS(=O)(=O)c1ccccc1C(=N)c1ccccc1`, the TGI in the assay on TK-10 renal, with EKVX NSCLC, in the assay with HS 578T breast, with HT29 colon, in the assay with OVCAR-3 ovarian and with UACC-62 melanoma was over 100 µM each time. In addition, the TGI with SW-620 colon, with HCT-15 colon, in the assay with M14 melanoma and in the assay with SK-OV-3 ovarian was over 100 µM in each case.

Take `Clc1ccccc1-c1nc(-c2ccncc2)no1`: the TGI in the assay on TK-10 renal, with EKVX NSCLC, with HS 578T breast, in the assay with HT29 colon, with OVCAR-3 ovarian and in the assay on UACC-62 melanoma was over 100 µM throughout. Further, the TGI with SW-620 colon, with HCT-15 colon, with M14 melanoma and with SK-OV-3 ovarian was over 100 µM throughout.

Regarding `COc1cc(/C=C/C(=O)NC[C@]2(O)CCC3C4CCc5cc(O)ccc5C4CCC32C)ccc1O` (stereo partly drawn), the GI50 is 2.76 µM in the assay on TK-10 renal; 13.9 µM with EKVX NSCLC; 67.6 µM in the assay on HS 578T breast; 3.68 µM in the assay on HT29 colon; 10.3 µM in the assay on OVCAR-3 ovarian; 16.8 µM with UACC-62 melanoma. For the same molecule, the GI50 in the assay with SW-620 colon is 34.1 µM; with HCT-15 colon, 7.41 µM; in the assay with M14 melanoma it was 4.99 µM; in the assay on SK-OV-3 ovarian it was 82.6 µM. Also, the TGI was 14.4 µM in the assay on TK-10 renal; over 100 µM with EKVX NSCLC; over 100 µM with HS 578T breast; 28.6 µM with HT29 colon; over 100 µM in the assay with OVCAR-3 ovarian; over 100 µM with UACC-62 melanoma. Also, the TGI with SW-620 colon is over 100 µM; in the assay on HCT-15 colon, over 100 µM; with M14 melanoma it was 37.6 µM; in the assay with SK-OV-3 ovarian it was over 100 µM.

In the case of `S=c1nc[nH]c2nc[nH]c12`, the GI50 in the assay on TK-10 renal was 58 µM and 10.2 µM; in the assay on EKVX NSCLC, > 100 µM and 353 µM; with HS 578T breast, 9.62 µM and 30.8 µM; with HT29 colon, 22.5 µM; in the assay on OVCAR-3 ovarian it was 0.762 µM and 3.66 µM; with SW-620 colon, 3.97 µM and 15.1 µM. In addition, the GI50 was 3.4 µM and 18.2 µM in the assay with HCT-15 colon; 0.418 µM and 3.92 µM in the assay on M14 melanoma; 0.629 µM and 5.06 µM with SK-OV-3 ovarian. Also, the TGI in the assay on TK-10 renal was > 100 µM and 549 µM and 332 µM; with EKVX NSCLC, > 100 µM and 741 µM and > 750 µM; in the assay with HS 578T breast, > 100 µM and 561 µM and > 612 µM; in the assay on HT29 colon it was over 750 µM; in the assay on OVCAR-3 ovarian, > 100 µM and 537 µM and > 750 µM; in the assay with UACC-62 melanoma it was > 100 µM and 512 µM and > 750 µM. Further, the TGI was > 100 µM and 692 µM and > 750 µM with SW-620 colon; > 100 µM and 629 µM and > 750 µM in the assay with HCT-15 colon; > 100 µM and 448 µM and > 750 µM with SK-OV-3 ovarian.

As to `CC(C)[C@](O)(C(=O)OCC1=CC[N+]2([O-])CC[C@@H](O)[C@@H]12)[C@H](C)O` (stereo partly drawn), the TGI in the assay with TK-10 renal is over 10000 µM; in the assay with EKVX NSCLC it was over 10000 µM; with HS 578T breast, over 10000 µM; in the assay with HT29 colon, over 10000 µM; with OVCAR-3 ovarian it was over 10000 µM; with UACC-62 melanoma, 9920 µM. Further, the TGI in the assay with SW-620 colon, in the assay with HCT-15 colon, in the assay on M14 melanoma and in the assay on SK-OV-3 ovarian was over 10000 µM in each case.
